Values quoted from earlier work in US20120172333A1, “PYRROLO-PYRIDINE DERIVATIVES AS ACTIVATORS OF AMPK” (GLAXOSMITHKLINE LLC, priority 2009, published 2012).

Test system: ob/ob and db/db mice
Settings: 8 day administration

Compound: NC(=O)c1ncn([C@@H]2O[C@H](CO)[C@@H](O)[C@H]2O)c1N [AICAR]
- reduction of blood glucose: 35%
